In one experiment the target is T1, GR Q642N (Homo sapiens, UniProt P04150, Q642N).
T1 construct: expressed in transfected cells; host or cells: AD293
T1 sequence (P04150 1-777 Q642N): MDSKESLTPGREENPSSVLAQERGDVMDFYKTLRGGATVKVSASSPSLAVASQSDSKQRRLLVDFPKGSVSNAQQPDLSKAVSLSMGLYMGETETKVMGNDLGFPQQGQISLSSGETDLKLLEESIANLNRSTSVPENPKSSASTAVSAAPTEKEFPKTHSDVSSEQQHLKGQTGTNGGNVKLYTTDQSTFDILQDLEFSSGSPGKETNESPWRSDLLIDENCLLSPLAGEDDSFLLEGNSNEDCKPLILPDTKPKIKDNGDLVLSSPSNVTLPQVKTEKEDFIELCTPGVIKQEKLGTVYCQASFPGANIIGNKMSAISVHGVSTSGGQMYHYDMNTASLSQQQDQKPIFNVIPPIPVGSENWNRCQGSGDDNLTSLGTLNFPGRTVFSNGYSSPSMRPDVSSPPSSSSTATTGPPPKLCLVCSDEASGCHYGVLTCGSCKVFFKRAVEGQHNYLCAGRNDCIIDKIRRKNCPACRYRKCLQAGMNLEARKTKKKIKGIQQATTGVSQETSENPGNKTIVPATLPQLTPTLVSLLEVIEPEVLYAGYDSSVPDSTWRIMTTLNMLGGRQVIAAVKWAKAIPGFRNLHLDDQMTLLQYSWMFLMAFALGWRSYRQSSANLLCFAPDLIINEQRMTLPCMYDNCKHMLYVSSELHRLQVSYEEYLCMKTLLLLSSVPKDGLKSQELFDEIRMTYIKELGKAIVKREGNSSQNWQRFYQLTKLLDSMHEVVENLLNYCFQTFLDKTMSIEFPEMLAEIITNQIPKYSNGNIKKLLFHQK
Nature of the experiment: Transactivation on MMTV-Luc in AD293 cells, GR Q642N mutant. To be noted: compared with wild type, up to saturation concentration. Type of experiment: cell-based. As to the method: (§1) AD293 cells were split at 20,000/well in 24 well plate one day before transfection. For transactivation, 100 ng pHHLuc (MMTV-Luc) plasmid, 0.1 ng pRShGR together with 5 ng phRGtkRenilla were transfected by X-tremeGENE 9 (Roche) into AD293 cells per well. For transreperssion, 10 ng AP1-Luc, 100 ng pRShGR and 5 ng phRGtkRenilla were transfected into AD293 cells per well. One day after transfection, cells were induced by different treatment (steroids or vehicle) 16 hrs overnight. Cells were harvest by 1× passive lysis buffer (Promega), luciferase activity was assayed by the Dual-Glo Luciferase system (Promega). Data were plotted by Luciferase Value/Renilla Value, as Relative Luciferase Unit (RLU).

Experiment [1] addresses T2, GR (Homo sapiens, UniProt P04150).
T2 sequence (P04150 1-777): T1 sequence (P04150 1-777 Q642N) with N642Q
Briefly: Determination of induction activity, MMTV-Luc reporter in AD293 cells transfected with pRShGR (Table 3, FIG. 14). Particulars: for % to Dex induction: relative to DEX 1000 nM; for RLU / RLU/Renilla: single replicate wells; for activation at 0.01 µM / activation at 1 µM: AD293, 16 h, read-out: % to Dex induction; for fold induction at 0.01 µM / fold induction at 1 µM: AD293, read-out: Steroid Fold Induction. As to the method: as §1
AD293 cells were transfected with 0.1 ng pRShGR, 100 ng MMTV-Luc reporter, and 10 ng TK-Renilla internal control per well in a 24-well plate. One day after transfection, cells were induced by candidate compounds at a concentration of 10 nm or 1 um (see FIG. 14). Cells were harvested and luciferase activity was measured by Promega Dual Luciferacse kit.

Experiment [2] deals with OVA-induced mouse asthma model. Briefly: OVA-induced mouse asthma model, lung function (RL) by FlexiVent. Type of experiment: in vivo. How it is done:
A OVA-induced mouse asthma model was used to examine the anti-inflammatory effect of candidate compounds. 7-9 weeks old Balb/c mice were primarily immunized with OVA (ovalbumin). […] Related Lung (RL) function in response to acetylcholine was measured by the forced oscillation techniques with the FlexiVent system (SCIREQ).
To evaluate the effect of candidate compounds in repressing lung inflammation, a OVA-induced mouse asthma model was used (RL: relative lung function).

For experiment [3], the target named is T2, GR. Nature of the experiment: Potency of candidate compounds in MMTV-luciferase reporter, full dose-response (FIG. 16A). Type of experiment: cell-based. Also noted: expressed in transfected cells; host or cells: AD293. Particulars: doses 0.01 nM to 1000 nM. An excerpt: To evaluate the potency of candidate compounds in a reporter system, an MMTV-luciferase reporter was used.
On the technique in general: In a reporter assay the amount or activity of a reporter protein is the signal.

In experiment [4] the target is T2, GR. Nature of the experiment: GR transactivation, MMTV-driven luciferase reporter (MMTV-Luc) in AD293 cells. Type of experiment: cell-based. Also noted: expressed in transfected cells; host or cells: AD293. Particulars: transactivation assay, FIG. 3B. How it is done:
as §1

Numbering of substitutions follows the chain as printed. Where “and” joins values, the source holds several entries; their conditions need not be identical. Equal entries are not always repeated.

On to `C[C@]12CCC(=O)C=C1CC[C@@H]1[C@@H]2[C@@H](O)C[C@@]2(C)[C@H]1CC[C@]2(O)C(=O)CO` [cortisol, Cortisol], for which the “full dose-response curve of Q642N” value at GR Q642N is “inactive”.
On to `C[C@@H]1C[C@H]2[C@@H]3CCC4=CC(=O)C=C[C@]4(C)[C@@]3(F)[C@@H](O)C[C@]2(C)[C@@]1(O)C(=O)CO` [DEX, dexamethasone, reference compound], for which the “% to Dex induction” value on GR [1] (10 nM) came to 52.82%; at GR [1] (1000 nM) it was 100%.
As to `C[C@@H]1CC2C3C=C(F)C4=Cc5c(cnn5-c5ccccc5)C[C@]4(C)[C@@]3(F)C(O)C[C@]2(C)[C@@]1(OC(=O)c1ccco1)C(=O)OC(C)(C)C` (stereo partly shown) [Compound 6], at GR [1] (10 nM), the “Mean (RLU/Renilla)” value is given as 1.417; the RLU is 353,720 and 347,400 and 378,600; the RLU/Renilla was 1.291 and 1.356 and 1.605. Moreover, on GR [1] (1000 nM), the “Mean (RLU/Renilla)” value was 1.614; the RLU is 385,840 and 290,120 and 330,680; the RLU/Renilla is 1.694 and 1.490 and 1.659. In addition, at GR [1], the activation at 0.01 µM stood at 98.8%, the activation at 1 µM worked out at 113%, the fold induction at 0.01 µM came out at 28.7 and the fold induction at 1 µM came to 32.7.
For the compound `C[C@@H]1CC2C3C=C(F)C4=Cc5c(cnn5-c5ccccc5)C[C@]4(C)[C@@]3(F)C(O)C[C@]2(C)[C@@]1(OC(=O)c1ccco1)C(=O)O` (stereo partly shown) [Compound 1], at GR [1] (10 nM), the “Mean (RLU/Renilla)” value was determined as 0.119; the “induction activity compared to other candidate compounds and VSGC12” value is listed as “much lower induction activity”; the RLU was 21,720 and 17,200 and 24,320; the RLU/Renilla is 0.116 and 0.093 and 0.149. Also, at GR [1] (1000 nM), the “Mean (RLU/Renilla)” value was found to be 0.806; the RLU was 186,480 and 180,880 and 219,480; the RLU/Renilla was 0.642 and 0.818 and 0.959. On GR [1], the activation at 0.01 µM was found to be 8.33%, the activation at 1 µM came to 56.2%, the fold induction at 0.01 µM amounted to 2.42 and the fold induction at 1 µM was determined as 16.4.
Take `CC(C)OC(=O)[C@@]1(OC(=O)c2ccco2)[C@H](C)CC2C3C=C(F)C4=Cc5c(cnn5-c5ccccc5)C[C@]4(C)[C@@]3(F)C(O)C[C@@]21C` (stereo partly shown) [Compound 3]: on GR [1] (10 nM), the “Mean (RLU/Renilla)” value is 1.462; the RLU is 295,280 and 295,520 and 299,320; the RLU/Renilla is 1.505 and 1.300 and 1.580. Also, at GR [1] (1000 nM), the “Mean (RLU/Renilla)” value was 1.219; the RLU was 249,160 and 279,160 and 254,120; the RLU/Renilla is 1.143 and 1.332 and 1.181. For the same compound, at GR [1], the activation at 0.01 µM came to 102%, the activation at 1 µM came to 85%, the fold induction at 0.01 µM is 29.6 and the fold induction at 1 µM stood at 24.7.
Turning to `C[C@@H]1CC2C3C=C(F)C4=Cc5c(cnn5-c5ccccc5)C[C@]4(C)[C@@]3(F)C(O)C[C@]2(C)[C@@]1(OC(=O)c1ccco1)C(=O)OCF` (stereo partly shown) [Compound 4], at GR [1] (10 nM), the “Mean (RLU/Renilla)” value was determined as 1.332; the RLU is 288,320 and 249,160 and 244,360; the RLU/Renilla is 1.518 and 1.258 and 1.222. On GR [1] (1000 nM), the “Mean (RLU/Renilla)” value is listed as 1.153; the RLU was 222,960 and 225,280 and 226,280; the RLU/Renilla is 1.178 and 1.134 and 1.147. Further, at GR [1], the activation at 0.01 µM is 92.9%, the activation at 1 µM came to 80.4%, the fold induction at 0.01 µM turned out to be 27 and the fold induction at 1 µM was 23.4. Moreover, the “repression of lung inflammation compared with VSGC12” value in experiment [2] (0.125 mg/kg, FIG. 16B) is given as “much higher repression activity”. The “increase in potency over fluticasone furoate (FF)” value in experiment [2] (FIG. 15) amounted to 8 fold. In addition, the “potency in repressing lung inflammation compared with FF” value in experiment [2] (FIG. 15, side by side comparison) is on record as “much more potent”. For the same compound, on GR [3], the “potency compared with VSGC12 and DEX” value is “higher potency”.
For `C[C@]12C=CC(=O)C=C1CC[C@@H]1[C@@H]2[C@@H](O)C[C@@]2(C)[C@H]1CC[C@]2(O)C(=O)CO` [prednisolone], at GR [4], the “leftward shift of the cortisol dose-response curve” value is recorded as “about 5 fold”.
Regarding `CCOC(=O)[C@@]1(OC(=O)c2ccco2)[C@H](C)CC2C3C=C(F)C4=Cc5c(cnn5-c5ccccc5)C[C@]4(C)[C@@]3(F)C(O)C[C@@]21C` (stereo partly shown) [Compound 2], at GR [1] (10 nM), the “Mean (RLU/Renilla)” value is reported as 1.328; the RLU was 221,760 and 206,200 and 190,520; the RLU/Renilla is 1.316 and 1.430 and 1.238. In addition, at GR [1] (1000 nM), the “Mean (RLU/Renilla)” value came out at 1.311; the RLU was 296,680 and 295,960 and 323,600; the RLU/Renilla was 1.365 and 1.267 and 1.302. Besides, at GR [1], the activation at 0.01 µM came out at 92.6%, the activation at 1 µM was found to be 91.5%, the fold induction at 0.01 µM came out at 26.9 and the fold induction at 1 µM was 26.6.
Regarding `CON(C)C(=O)[C@@]1(OC(=O)c2ccco2)[C@H](C)CC2C3C=C(F)C4=Cc5c(cnn5-c5ccccc5)C[C@]4(C)[C@@]3(F)C(O)C[C@@]21C` (stereo partly shown) [VSGC12, reference compound], at GR [1] (10 nM), the “Mean (RLU/Renilla)” value is 1.402; the RLU is 316,240 and 298,600 and 289,480; the RLU/Renilla is 1.598 and 1.522 and 1.085. Moreover, on GR [1] (1000 nM), the “Mean (RLU/Renilla)” value amounted to 1.682; the RLU is 331,400 and 309,120 and 312,400; the RLU/Renilla was 1.767 and 1.765 and 1.513. Moreover, at GR [1], the activation at 0.01 µM is 97.8%, the activation at 1 µM stood at 117%, the fold induction at 0.01 µM was determined as 28.4 and the fold induction at 1 µM worked out at 34.1.
Turning to `C[C@@H]1CC2C3C=C(F)C4=Cc5c(cnn5-c5ccccc5)C[C@]4(C)[C@@]3(F)C(O)C[C@]2(C)[C@@]1(OC(=O)c1ccco1)C(=O)SCF` (stereo partly shown) [Compound 5], on GR [1] (10 nM), the “Mean (RLU/Renilla)” value came out at 1.444; the RLU is 298,760 and 265,160 and 249,760; the RLU/Renilla was 1.485 and 1.433 and 1.413. At GR [1] (1000 nM), the “Mean (RLU/Renilla)” value is 1.235; the RLU was 346,400 and 350,240 and 345,760; the RLU/Renilla was 1.108 and 1.227 and 1.371. Besides, on GR [1], the activation at 0.01 µM came to 101%, the activation at 1 µM is 86.1%, the fold induction at 0.01 µM was found to be 29.3 and the fold induction at 1 µM came to 25.

These data come from US10954265B2 (Van Andel Research Institute, priority 2016, dated 2021).
